According to the Kinase Knowledgebase extract (Sharma et al. 2016):

Molecular target: ROCK2 (human) (UniProt O75116)
Assay: Inhibition of ROCK2 Kinase Activity

Sequence of ROCK2 (human) (O75116 whole entry, looked up): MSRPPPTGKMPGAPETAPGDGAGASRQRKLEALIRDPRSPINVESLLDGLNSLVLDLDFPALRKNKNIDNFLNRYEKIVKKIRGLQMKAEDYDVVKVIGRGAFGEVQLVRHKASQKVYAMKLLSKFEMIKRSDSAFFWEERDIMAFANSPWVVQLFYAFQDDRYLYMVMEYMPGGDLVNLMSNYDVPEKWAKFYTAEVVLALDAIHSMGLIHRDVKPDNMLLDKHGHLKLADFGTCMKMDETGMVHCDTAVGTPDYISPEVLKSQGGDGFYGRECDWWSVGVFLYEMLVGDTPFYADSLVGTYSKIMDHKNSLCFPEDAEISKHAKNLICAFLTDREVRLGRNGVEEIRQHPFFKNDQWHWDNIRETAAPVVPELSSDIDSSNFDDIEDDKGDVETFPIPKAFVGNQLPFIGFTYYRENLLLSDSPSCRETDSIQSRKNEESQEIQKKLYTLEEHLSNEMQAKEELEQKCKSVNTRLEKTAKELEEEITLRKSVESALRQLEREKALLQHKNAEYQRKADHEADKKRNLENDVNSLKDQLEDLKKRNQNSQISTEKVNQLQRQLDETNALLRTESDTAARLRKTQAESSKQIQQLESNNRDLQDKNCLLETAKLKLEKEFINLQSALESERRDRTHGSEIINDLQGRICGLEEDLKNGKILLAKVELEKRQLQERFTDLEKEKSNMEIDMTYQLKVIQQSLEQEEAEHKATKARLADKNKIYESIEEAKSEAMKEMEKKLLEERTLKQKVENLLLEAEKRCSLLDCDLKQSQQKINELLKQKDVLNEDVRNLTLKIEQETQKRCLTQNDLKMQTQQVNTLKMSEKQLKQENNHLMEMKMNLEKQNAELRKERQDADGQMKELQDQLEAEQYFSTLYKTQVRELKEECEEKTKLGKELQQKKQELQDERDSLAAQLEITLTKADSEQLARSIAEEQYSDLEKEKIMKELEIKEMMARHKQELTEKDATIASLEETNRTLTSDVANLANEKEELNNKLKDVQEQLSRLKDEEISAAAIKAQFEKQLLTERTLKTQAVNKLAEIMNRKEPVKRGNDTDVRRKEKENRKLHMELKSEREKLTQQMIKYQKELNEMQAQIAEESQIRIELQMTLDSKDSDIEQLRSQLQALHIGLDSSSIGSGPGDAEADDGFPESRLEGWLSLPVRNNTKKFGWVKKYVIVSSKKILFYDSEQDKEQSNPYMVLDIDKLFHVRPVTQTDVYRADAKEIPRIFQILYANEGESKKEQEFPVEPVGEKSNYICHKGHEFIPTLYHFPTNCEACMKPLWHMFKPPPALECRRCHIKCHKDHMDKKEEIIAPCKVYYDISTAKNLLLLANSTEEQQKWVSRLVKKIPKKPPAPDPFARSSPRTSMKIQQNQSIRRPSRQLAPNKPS

Row | SMILES | IC50 [µM]
1 | O=C(NCc1nc(-c2c[nH]c3ncccc23)n[nH]1)c1ccc([N+](=O)[O-])c(O)c1 | > 5
2 | COc1cc(OC)c(C(=O)NCc2nc(-c3c[nH]c4ncccc34)n[nH]2)cc1OC | > 5
3 | CC(C)(C)OC(=O)NC(Cc1ccccc1)C(=O)NCc1nc(-c2c[nH]c3ncccc23)n[nH]1 (stereo not drawn) | > 5
4 | O=C(NCc1nc(-c2c[nH]c3ncccc23)n[nH]1)c1cccc(Cl)c1Cl | > 5
5 | Cc1cc(C(=O)NCc2nc(-c3c[nH]c4ncccc34)n[nH]2)ccc1Br | > 5
6 | Cc1cccc(C(=O)NCc2nc(-c3ccncc3)n[nH]2)c1[N+](=O)[O-] | > 5
7 | COc1ccc2cc(C(C)C(=O)NCc3nc(-c4ccncc4)n[nH]3)ccc2c1 (stereo not drawn) | > 5
8 | Cc1cc(C)c(C(=O)NCc2nc(-c3ccncc3)n[nH]2)c(C)c1 | > 5
9 | COC1=CC(OC)(C(=O)NCc2nc(-c3ccncc3)n[nH]2)C=C1 (stereo not drawn) | > 5
10 | O=C(NCc1nc(-c2ccncc2)n[nH]1)c1cc(Cl)c(O)c(Cl)c1 | > 5
11 | O=C(NCc1nc(-c2c[nH]c3ncccc23)n[nH]1)c1ccc(Cl)cc1Cl | > 5
12 | Cc1cccc(C(=O)NCc2nc(-c3ccncc3)n[nH]2)c1C | > 5
13 | O=C(C=Cc1ccc(Cl)cc1)NCc1nc(-c2c[nH]c3ncccc23)n[nH]1 | > 5
14 | O=C(NCc1nc(-c2ccncc2)n[nH]1)c1cc([N+](=O)[O-])ccc1Cl | > 5
15 | O=C(NCc1nc(-c2ccncc2)co1)c1ccc(O)cc1O | ≤ 5
16 | O=C(NCc1nc(-c2c[nH]c3ncccc23)n[nH]1)c1ccc(F)c(F)c1 | > 5
17 | O=C(NCc1nc(-c2c[nH]c3ncccc23)n[nH]1)c1cc(Cl)c(O)c(Cl)c1 | > 5
18 | O=Cc1ccc(C(=O)NCc2nc(-c3ccncc3)n[nH]2)cc1 | > 5
19 | O=C(NCc1nc(-c2ccncc2)n[nH]1)c1ccccc1O | ≤ 5
20 | COc1ccc(C(=O)NCc2nc(-c3ccncc3)n[nH]2)cc1C | > 5
21 | O=C(C=Cc1ccccc1O)NCc1nc(-c2ccncc2)n[nH]1 | > 5
22 | CCC(C)C(NC(=O)OC(C)(C)C)C(=O)NCc1nc(-c2ccncc2)n[nH]1 (stereo not drawn) | > 5

Row | SMILES | IC50 [µM]
23 | O=C(NCc1nc(-c2c[nH]c3ncccc23)n[nH]1)c1ccc(I)cc1 | > 5
24 | CCOc1ccc2ccccc2c1C(=O)NCc1nc(-c2c[nH]c3ncccc23)n[nH]1 | > 5
25 | O=C(Cc1ccc2c(c1)OCO2)NCc1nc(-c2c[nH]c3ncccc23)n[nH]1 | > 5
26 | Cc1csc(C(=O)NCc2nc(-c3ccncc3)n[nH]2)c1 | ≤ 5
27 | CC(C)(C)OC(=O)N1CC(O)CC1C(=O)NCc1nc(-c2ccncc2)n[nH]1 (stereo not drawn) | > 5
28 | O=C(NCc1nc(-c2c[nH]c3ncccc23)n[nH]1)c1ccc(Br)cc1 | > 5
29 | O=C(NCc1nc(-c2ccncc2)n[nH]1)c1ccc(Cl)cc1[N+](=O)[O-] | > 5
30 | O=C(NCc1nc(-c2ccncc2)n[nH]1)c1cc(Cl)ccn1 | > 5
31 | O=C(NCc1nc(-c2ccncc2)n[nH]1)C(O)CCl (stereo not drawn) | > 5
32 | Cc1ccccc1CC(=O)NCc1nc(-c2c[nH]c3ncccc23)n[nH]1 | > 5
33 | O=C(NCc1nnc(-c2ccnc3[nH]ccc23)o1)c1ccc(O)cc1O | ≤ 5
34 | CC(C)(C)OC(=O)N1Cc2ccccc2CC1C(=O)NCc1nc(-c2ccncc2)n[nH]1 (stereo not drawn) | > 5
35 | O=C(NCc1nc(-c2ccncc2)n[nH]1)c1ccccc1Cc1ccccc1 | > 5
36 | Cc1ccc(C(=O)NCc2nc(-c3c[nH]c4ncccc34)n[nH]2)c(C)c1 | > 5
37 | O=C(Cc1ccc(C(F)(F)F)cc1)NCc1nc(-c2ccncc2)n[nH]1 | > 5
38 | O=C(NCc1nc(-c2c[nH]c3ncccc23)n[nH]1)c1c(F)c(F)c(F)c(F)c1F | > 5
39 | O=C(NCc1nc(-c2c[nH]c3ncccc23)n[nH]1)c1cccs1 | ≤ 5
40 | O=C(NCc1nc(-c2c[nH]c3ncccc23)n[nH]1)C1CCCN1C(=O)OCc1ccccc1 (stereo not drawn) | > 5
41 | O=C(CCc1ccccc1Br)NCc1nc(-c2ccncc2)n[nH]1 | > 5
42 | CC(=O)c1ccccc1C(=O)NCc1nc(-c2c[nH]c3ncccc23)n[nH]1 | > 5
43 | COc1cc(C(=O)NCc2nc(-c3ccncc3)n[nH]2)c([N+](=O)[O-])cc1OC | > 5
44 | O=C(NCc1nc(-c2ccncc2)n[nH]1)c1cc([N+](=O)[O-])ccc1F | > 5

Row | SMILES | IC50 [µM]
45 | COc1ccc(C(=O)NCc2nc(-c3ccncc3)n[nH]2)cc1 | ≤ 5
46 | O=C(NCc1nc(-c2c[nH]c3ncccc23)n[nH]1)c1cc2ccccc2cc1O | > 5
47 | Cc1ccc(C(=O)CCC(=O)NCc2nc(-c3ccncc3)n[nH]2)cc1 | > 5
48 | O=C(Cc1ccc(O)c(Cl)c1)NCc1nc(-c2c[nH]c3ncccc23)n[nH]1 | > 5
49 | O=C(CCc1ccccc1O)NCc1nc(-c2ccncc2)n[nH]1 | > 5
50 | Cc1ccsc1C(=O)NCc1nc(-c2ccncc2)n[nH]1 | ≤ 5
51 | O=C(NCc1nc(-c2ccncc2)n[nH]1)c1n[nH]c2ccccc12 | ≤ 5
52 | CCCCc1ccc(C(=O)NCc2nc(-c3c[nH]c4ncccc34)n[nH]2)cc1 | > 5
53 | O=C(NCc1nc(-c2ccncc2)n[nH]1)c1ccccc1[N+](=O)[O-] | > 5
54 | O=C(NCc1nc(-c2c[nH]c3ncccc23)n[nH]1)c1cc(F)c(Cl)cc1F | > 5
55 | O=C(NCc1nc(-c2c[nH]c3ncccc23)n[nH]1)c1cc(F)c(F)cc1[N+](=O)[O-] | > 5
56 | O=C(NCc1nc(-c2ccncc2)n[nH]1)c1cccc(Br)c1 | > 5
57 | Cc1ccc(SCC(=O)NCc2nc(-c3ccncc3)n[nH]2)cc1 | > 5
58 | O=C(NCc1nc(-c2ccncc2)n[nH]1)c1cc(F)c(F)cc1[N+](=O)[O-] | > 5
59 | O=C(NCc1nc(-c2c[nH]c3ncccc23)n[nH]1)c1ccc(F)cc1 | > 5
60 | CS(=O)(=O)Nc1cccc(C(=O)NCc2nc(-c3ccncc3)n[nH]2)c1 | > 5
61 | Cn1nc(-c2ccncc2)nc1CNC(=O)c1cccs1 | > 5
62 | O=C(NCc1nc(-c2ccncc2)n[nH]1)c1cc(Cl)ccc1[N+](=O)[O-] | > 5
63 | CC(C)(C)OC(=O)NC(Cc1ccccc1)C(=O)NCc1nc(-c2ccncc2)n[nH]1 (stereo not drawn) | > 5
64 | O=C(NCc1nc(-c2ccncc2)n[nH]1)c1ccsc1 | ≤ 5
65 | O=C(NCc1nc(-c2c[nH]c3ncccc23)n[nH]1)c1cc(F)ccc1[N+](=O)[O-] | > 5
66 | O=C(NCc1nc(-c2c[nH]c3ncccc23)n[nH]1)c1cncc(Br)c1 | > 5

Row | SMILES | IC50 [µM]
67 | CC(C(=O)NCc1nc(-c2c[nH]c3ncccc23)n[nH]1)c1cccc(C(=O)OCc2ccccc2)c1 (stereo not drawn) | > 5
68 | O=C(NCc1nc(-c2ccncc2)n[nH]1)c1ccncc1 | > 5
69 | O=C(NCc1nc(-c2ccncc2)n[nH]1)c1ccccc1Cl | > 5
70 | O=C(NCc1nc(-c2ccncc2)n[nH]1)c1ccc(-c2ccc(O)cc2)cc1 | > 5
71 | CCCc1ccc(C(=O)NCc2nc(-c3ccncc3)n[nH]2)cc1 | > 5
72 | O=C(NCc1nc(-c2ccncc2)n[nH]1)c1c(Cl)cc(Cl)cc1Cl | > 5
73 | O=C(NCc1nc(-c2c[nH]c3ncccc23)n[nH]1)C1CCCO1 (stereo not drawn) | > 5
74 | O=C(NCc1nc(-c2ccncc2)n[nH]1)c1c(F)cccc1F | > 5
75 | O=C(NCc1nc(-c2c[nH]c3ncccc23)n[nH]1)c1ccc(OCc2ccccc2)cc1 | > 5
76 | CC(C)Cc1ccc(C(C)C(=O)NCc2nc(-c3c[nH]c4ncccc34)n[nH]2)cc1 (stereo not drawn) | > 5
77 | CCCOc1ccc(C(=O)NCc2nc(-c3ccncc3)n[nH]2)cc1 | > 5
78 | O=C(NCc1nc(-c2c[nH]c3ncccc23)n[nH]1)c1ccccc1Oc1ccccc1 | > 5
79 | O=C(NCc1nc(-c2c[nH]c3ncccc23)n[nH]1)C1CCCCC1 | > 5
80 | COc1cc(C=CC(=O)NCc2nc(-c3ccncc3)n[nH]2)ccc1O | > 5
81 | O=C(Cc1c(F)cccc1F)NCc1nc(-c2ccncc2)n[nH]1 | > 5
82 | Cc1ccc(O)c(C(=O)NCc2nc(-c3ccncc3)n[nH]2)c1 | > 5
83 | O=C(CCc1nc2ccccc2[nH]1)NCc1nc(-c2c[nH]c3ncccc23)n[nH]1 | > 5
84 | O=C(NCc1nc(-c2c[nH]c3ncccc23)n[nH]1)c1cccc(I)c1 | > 5
85 | O=C(NCc1nc(-c2ccncc2)n[nH]1)c1cccc(Br)n1 | > 5
86 | Cc1nc(Br)sc1C(=O)NCc1nc(-c2ccncc2)n[nH]1 | > 5
87 | Cc1cc(C)cc(C(=O)NCc2nc(-c3c[nH]c4ncccc34)n[nH]2)c1 | > 5
88 | O=C(Nc1cccc2c(-c3ccncc3)n[nH]c12)c1cccs1 | > 5

Row | SMILES | IC50 [µM]
89 | O=C(CCc1ccccc1Br)NCc1nc(-c2c[nH]c3ncccc23)n[nH]1 | > 5
90 | CCOc1ccc2ccccc2c1C(=O)NCc1nc(-c2ccncc2)n[nH]1 | > 5
91 | COc1ccc(C(=O)NCc2nc(-c3ccncc3)n[nH]2)c(O)c1 | ≤ 5
92 | O=C(NCc1nc(-c2ccncc2)c[nH]1)c1ccc(O)cc1O | ≤ 5
93 | O=C(NCc1nc(-c2c[nH]c3ncccc23)n[nH]1)c1ncc[nH]1 | > 5
94 | O=C(NCc1nc(-c2c[nH]c3ncccc23)n[nH]1)C1CCc2ccccc2C1 (stereo not drawn) | > 5
95 | O=C(CCc1cccc(C(F)(F)F)c1)NCc1nc(-c2ccncc2)n[nH]1 | ≤ 5
96 | CCCCCc1ccc(C(=O)NCc2nc(-c3c[nH]c4ncccc34)n[nH]2)cc1 | > 5
97 | O=C(Cc1ccc(Br)cc1)NCc1nc(-c2ccncc2)n[nH]1 | > 5
98 | O=C(NCc1nc(-c2c[nH]c3ncccc23)n[nH]1)c1ccccc1O | > 5
99 | CC(C)CC(=O)NCc1nc(-c2c[nH]c3ncccc23)n[nH]1 | > 5
100 | O=C(NCc1nc(-c2ccncc2)n[nH]1)C1CCCO1 (stereo not drawn) | > 5
101 | O=C(CCc1nc(-c2ccncc2)n[nH]1)c1ccc(O)cc1 | ≤ 5
102 | c1ccc(COc2ccc(CNCc3nc(-c4ccncc4)n[nH]3)cc2)cc1 | > 5
103 | O=C(NCc1nc(-c2ccncc2)n[nH]1)c1ccc2c(c1)OCO2 | > 5
104 | O=C(NCc1nc(-c2ccncc2)n[nH]1)c1c(O)ccc2ccccc12 | > 5
105 | CC(C)(C)OC(=O)N1CCCCC1C(=O)NCc1nc(-c2ccncc2)n[nH]1 (stereo not drawn) | > 5
106 | O=C(NCc1nc(-c2c[nH]c3ncccc23)n[nH]1)c1ccnc(Cl)c1 | > 5
107 | O=C(NCc1nc(-c2ccncc2)n[nH]1)c1cccc(Oc2ccccc2)c1 | > 5
108 | O=C(NCc1nc(-c2c[nH]c3ncccc23)n[nH]1)c1ccc(Oc2ccccc2)cc1 | > 5
